Legend:
[1] = test system: progesterone receptor (PRA, PRB) in T47D cells; assay: PR nuclear translocation in T47D cells (Western blot); type: cell-based, human; settings: 100 nM, compared to Promegestone, Mifepristone or Asoprisnil
Description: Subsequently, progesterone receptors present in nuclear as well as cytosolic fractions were stained using Western blotting.
[…] (constitutively expressing the progesterone receptor) were treated with 100 nM of EC313 or reference compounds to activate PR. After 6h and after 24h cells were lysed, the nuclear and cytosolic fractions were separated and Western blots of these fractions were prepared.
Blots were stained for PRA and PRB as well as the housekeeping proteins GAPDH (as a marker for the cytosolic fraction) and histone H3 (as a marker for the nuclear fraction). Nuclear and cytoplasmic proteins from […] were extracted after cell stimulation with PR ligands and the nuclear and cytoplasmic fractions were analyzed for PRB and PRA content using Western blotting.

[2] = test system: human uterine fibroid xenografts; design: method as in PMID 31754172; settings: ref [2], cited from earlier work
human androgen receptor = target: T1, human androgen receptor (Homo sapiens, UniProt P10275); assay: AR transactivation (CHO, MMTV-LUC); type: cell-based
T1 construct: host or cells: CHO, transient co-transfection
T1 sequence (P10275 1-920): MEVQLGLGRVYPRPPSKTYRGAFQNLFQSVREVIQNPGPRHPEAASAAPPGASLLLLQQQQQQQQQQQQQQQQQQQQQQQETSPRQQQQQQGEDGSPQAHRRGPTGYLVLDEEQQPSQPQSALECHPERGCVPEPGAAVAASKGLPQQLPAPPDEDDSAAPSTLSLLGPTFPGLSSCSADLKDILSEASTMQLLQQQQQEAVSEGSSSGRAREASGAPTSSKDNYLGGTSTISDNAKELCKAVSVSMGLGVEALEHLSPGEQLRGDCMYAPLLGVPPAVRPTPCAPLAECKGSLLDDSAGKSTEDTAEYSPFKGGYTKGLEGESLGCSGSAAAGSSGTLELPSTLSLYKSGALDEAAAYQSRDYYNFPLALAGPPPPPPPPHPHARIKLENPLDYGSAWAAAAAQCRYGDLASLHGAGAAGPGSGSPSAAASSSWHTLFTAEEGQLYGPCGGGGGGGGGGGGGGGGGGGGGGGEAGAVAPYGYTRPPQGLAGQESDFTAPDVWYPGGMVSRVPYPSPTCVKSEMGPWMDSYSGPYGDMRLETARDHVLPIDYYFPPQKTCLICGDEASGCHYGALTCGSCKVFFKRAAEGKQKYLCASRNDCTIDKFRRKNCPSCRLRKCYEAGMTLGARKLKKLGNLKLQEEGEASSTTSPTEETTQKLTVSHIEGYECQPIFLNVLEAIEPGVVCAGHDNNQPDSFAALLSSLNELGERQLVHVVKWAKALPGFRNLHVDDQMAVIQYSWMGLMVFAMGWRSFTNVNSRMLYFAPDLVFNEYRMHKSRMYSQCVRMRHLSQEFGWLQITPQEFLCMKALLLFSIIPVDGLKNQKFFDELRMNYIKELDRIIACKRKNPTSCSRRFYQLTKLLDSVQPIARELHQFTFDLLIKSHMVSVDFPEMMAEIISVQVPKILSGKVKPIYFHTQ
Description: The androgen transactivation potential of EC313 was studied in the CHO cell line expressing this steroid protein receptor. The cells were co-transfected with a vector encoding a human full-length androgen receptor (hAR) linked to the reporter vector MMTV/LUC. To produce high protein expression, transient transfections were carried out. […] Agonist and antagonist properties of EC313 toward tested receptor AR were analyzed using luminescence detection.
To prepare the transfection assay, plasmids were generated and isolated. Plasmid included vector coding sequences for the receptor as well as the reporter gene. Vector pcDNA3.1 coding sequence for the full length of human AR (AR cDNA ORF clone in pcDNA3.1+/C-(K)-DYK) was used as an expression vector for AR. Vector pGL4.36 coding for the androgen-responsive element (MMTV) linked to Firefly luciferase [luc2P/Hygro] was used as a reporter system (pGL4.36-MMTV/LUC).
Co-transfection was performed on a 96-well plate (16x10^3 cells per well) in culture medium (RPMI w/o phenol red, 10% FBS, L-Glu) w/o antibiotics using transfection reagents following the manufacturer’s instructions. Prior to transfection, plated cells were approximately 70%–80% confluent. After 24h of transfection, medium was removed to a culture medium and cells were treated for the next 24h with the test compounds.
After incubating the cells for 24h with the tested compounds, the luciferase activity was analyzed.

C[C@]12C[C@H](c3ccc(-c4ccoc4)cc3)C3=C4CCC(=O)C=C4CC[C@H]3[C@@H]1CC[C@]21OCCC1=C(F)F [EC313]
receptors retained in the nuclear fraction after 24 hours [1]: retained more receptors in the nuclear fraction
uterine fibroid markers desmin and collagen ([2]; Part A, 0.1 and 1.0 mg EC313/kg/day): markedly reduced
fibroid xenograft weight ([2]; Part A, 0.1 and 1.0 mg/kg/day s.c., 60 days): reduced the fibroid xenograft weight dose-dependently
levels of ER and PR in grafts (immunohistochemistry) ([2]; Part A, vs control p< 0.001, vs UPA p< 0.01): reduced
E2-induced proliferation in xenograft fibroids ([2]; Part A, vs control, p< 0.0001): blocked significantly
lowest effective dosage, uterine fibroid model ([2]; demonstrated previously): 0.1 mg/kg/day s.c.
fold higher concentration for the same androgenic effect vs Metribolone (human androgen receptor; AR agonism): 38 fold
EC50 (human androgen receptor; AR, three experiments, read-out: EC50, agonistic activity): 280 nM
antagonistic activity (human androgen receptor; AR, vs 13 nM Metribolone): No antagonistic activity

From paper PMC10520499, “Next step in the development of mesoprogestins: the preclinical profile of EC313” (Frontiers in Endocrinology, 2023)
